Calls of active or inactive are those of the source. The rule behind the calls is not given here.
Assays:
[1] = test system: Lipid bilayer; assay: Binding affinity to POPG:POPC:lysyl-DOPG:7MC-POPE unilamellar lipid vesicle with >30 mol% of lysyl-DOPG at 0.5 uM by FRET assay
[2] = test system: Lipid bilayer; assay: Binding affinity to POPG:POPC:lysyl-DOPG:7MC-POPE unilamellar lipid vesicle with <30 mol% of lysyl-DOPG at 0.5 uM by FRET assay

Activity [1]: inactive
Activity [2]: Active
Substance: H-ALYKKWKKKLLKSLKRLG-OH

From ChEMBL document CHEMBL1687772, “Lysyl-phosphatidylglycerol attenuates membrane perturbation rather than surface association of the cationic antimicrobial peptide 6W-RP-1 in a model membrane system: implications for daptomycin resistance” (Antimicrob Agents Chemother, 2010)
